According to patent US20200121677A1, “SUBSTITUTED 6,7-DIHYDROPYRAZOLO[1,5-a]PYRAZINES AS NEGATIVE ALLOSTERIC MODULATORS OF MGLUR2 RECEPTORS” (Janssen Pharmaceutica NV, priority 2014, published 2020):

Columns and labels:
Male Wiga Wistar rats = assay: Reversal of LY-404039-induced decrease of palpebral opening in apomorphine-challenged rats; type: in vivo, rat; details: for ED50: Rattus norvegicus, rats, route PO (route cell empty for Co. 88 and 84), read-out: ED50 APO LY-404039 (Reversal of LY-404039-induced decrease of palpebral opening in apomorphine challenged rats)
Procedure: 1) Reversal of LY-404039-Induced Decrease of Palpebral Opening in Apomorphine-Challenged Rats.
Male Wiga Wistar rats (Crl:WI; Charles River Germany; 220±40 g) were housed under standard laboratory conditions (21±2° C.; 50-65% relative humidity; light-dark cycle set at 12 h; lights on at 6.00 h) and fasted overnight prior to the start of the experiments (tap water remained available ad libitum). During the test period, they were housed in individual cages. Palpebral opening was scored every 5 min over the first hour after injection of apomorphine (1.0 mg/kg, i.v.) in animals either pretreated or not pretreated with LY-404039 (2.5 mg/kg, s.c.) at 1 h prior to the apomorphine injection. The animals were also pretreated with test compound or solvent at a predefined interval before apomorphine challenge. The score system was: (5) exophthalmos, (4) wide open, (3) open for three-quarters, (2) half open, (1) open for one-quarter, (0) closed. The scores for palpebral opening were cumulated over the 60-min observation period.

rats = assay: Reversal of the effect of the mGluR2 PAM JNJ-42153605-induced inhibition of scopolamine-induced hyperlocomotion; type: in vivo, rat; details: rats, route PO, criterion total distance >1500 cm; for ED50: Rattus norvegicus, read-out: ED50 SCOP JNJ-42153605 (Reversal of the effect of JNJ 42153605 on scopolamine-induced hyperlocomotion)
Procedure: 2) Reversal of the Effect of the mGluR2 PAM JNJ-42153605-Induced Inhibition of Scopolamine-Induced Hyperlocomotion
Motor activity was measured in microprocessor-based motor activity arenas (closed gray PVC cylinders with a height of 39 cm and a diameter of 31 cm). Each arena was placed on an infrared LED (8×8 LEDs) lit box (white PVC squared box; 40×40 cm^2; height 12.5 cm. An infrared-sensitive tube camera and a white light source were mounted to the ceiling above the observation chamber to track the animal. The total distance traveled (cm) was recorded and analyzed using the Noldus Ethovision XT Video Tracking System (Version 7.0.418; Noldus, Wageningen, The Netherlands). The intensity of the light within the activity cages (measured in the centre at the level of the floor) ranged between 4 and 8 LUX.
The rats were pretreated with test compound or vehicle at 60 min before the start of the activity recordings and placed into individual cages. The rats were challenged with JNJ-42153605 (3-(cyclopropylmethyl)-7-(4-phenylpiperidin-1-yl)-8-(trifluoromethyl)[1,2,4]triazolo[4,3-a]pyridine; WO2010/130424; Cid et al. J. Med. Chem. 2012, 55, 8770-8789) (20 mg/kg, i.v.) 30 min before the start of the activity recording combined with scopolamine (0.16 mg/kg, i.v.) just before the start of the activity measurements. Immediately after the injection of scopolamine, the rats were placed into the activity monitors and total distance traveled over the first 30 min was measured.
For reversal of the inhibitory effect of JNJ-42153605 on the scopolamine-induced hyperlocomotion, the following all-or-none criteria were adopted: (1) reversal: total distance >1500 cm.

human mGlu2 receptor = human mGlu2 receptor (Homo sapiens, UniProt Q14416); assay: [35S]GTPγS binding assay, mGluR2 negative allosteric modulation (membranes from CHO cells transfected with human mGlu2 receptor, glutamate ~EC80 60 μM); details: for IC50: GTPγS - hmGluR2 anGT pIC50, membranes with human mGlu2 receptor; for IC50 / GTPγS - hmGluR2 anGT pIC50: glutamate ~EC80 (60 μM), pIC50 = -log IC50 (M); for Emax: read-out: GTPγS - hmGluR2 anGT Emax, relative maximal effect: maximal % inhibition relative to the control glutamate response; for GTPγS - hmGluR2 anGT pIC50: membranes with human mGlu2 receptor; for GTPγS - hmGluR2 anGT Emax: relative maximal effect: maximal % inhibition relative to the control glutamate response;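 on all read-outs here: membranes preincubated 30 min at 30 °C with compound plus glutamate, then [35S]GTPγS (0.1 nM) incorporation measured over another 30 min at 30 °C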
Procedure: The [^35S]GTPγS binding assay is a functional membrane-based assay used to study G-protein coupled receptor (GPCR) function whereby incorporation of a non-hydrolysable form of GTP, [^35S]GTPγS (guanosine 5′-triphosphate, labelled with gamma-emitting ^35S), is measured. […] Here we describe the use of the [^35S]GTPγS binding assay using membranes from cells transfected with the human mGlu2 receptor and adapted from Schaffhauser et al. (Molecular Pharmacology, 2003, 4:798-810) for the detection of the negative allosteric modulation (NAM) properties of the compounds of this invention.
CHO-cells were cultured to pre-confluence and stimulated with 5 mM butyrate for 24 h. Cells were then collected by scraping in PBS and cell suspension was centrifuged (10 min at 4000 RPM in benchtop centrifuge). Supernatant was discarded and pellet gently resuspended in 50 mM Tris-HCl, pH 7.4 by mixing with an Ultra Turrax homogenizer. The suspension was centrifuged at 12,400 RPM (Sorvall F14S-6x250Y) for 10 minutes and the supernatant discarded. The pellet was homogenized in 5 mM Tris-HCl, pH 7.4 using an Ultra Turrax homogenizer and centrifuged again (13,000 RPM, 20 min, 4° C.). The final pellet was resuspended in 50 mM Tris-HCl, pH 7.4 and stored at −80° C. in appropriate aliquots before use. Protein concentration was determined by the Bradford method (Bio-Rad, USA) with bovine serum albumin as standard.
Measurement of mGluR2 negative allosteric modulatory activity of test compounds was performed as follows. Test compounds and glutamate were diluted in assay buffer containing 10 mM HEPES acid, 10 mM HEPES salt, pH 7.4, 100 mM NaCl, 3 mM MgCl2 and 10 μM GDP. Human mGlu2 receptor-containing membranes were thawed on ice and diluted in assay buffer supplemented with 18 μg/ml saponin. Membranes were pre-incubated with compound together with a predefined (˜EC80) concentration of glutamate (60 μM) for 30 min at 30° C. After addition of [^35S]GTPγS (f.c. 0.1 nM), assay mixtures were shaken briefly and further incubated to allow [^35S]GTPγS incorporation on activation (30 minutes, 30° C.). Final assay mixtures contained 7 μg of membrane protein in 10 mM HEPES acid, 10 mM HEPES salt, pH 7.4, 100 mM NaCl, 3 mM MgCl2, 10 μM GDP and 10 μg/ml saponin. Total reaction volume was 200 μl. Reactions were terminated by rapid filtration through Unifilter-96 GF/B plates (Perkin Elmer, Massachusetts, USA) using a 96-well filtermate universal harvester. Filters were washed 6 times with ice-cold 10 mM NaH2PO4/10 mM Na2HPO4, pH 7.4. Filters were then air-dried, and 30 μl of liquid scintillation cocktail (Microscint-O) was added to each well. Membrane-bound radioactivity was counted in a Topcount.
Data were calculated as % of the control glutamate response, defined as the response that is generated upon addition of an EC80-equivalent concentration of glutamate.

Wiga rats = assay: Induction of mydriasis (pupil diameter, test 1 and test 2); type: in vivo, rat; details: route PO, pupil diameter >25 units, maximum over 1, 2 or 3 h post-administration; for ED50: Rattus norvegicus, read-out: ED50 MYD Test 2 (Induction of mydriasis)
Procedure: 3) Induction of Mydriasis
The pupil diameter of Wiga rats was measured with a microscopic micrometer (1 unit=1/24 mm). Criteria for drug-induced effects: pupil diameter >25 units for mydriasis (in controls: 1.9%) 1 h post-administration of the test compound (test 1) or 1, 2 or 3 h post-administration of the test compound (test 2, wherein the maximum pupil diameter over the full 3 h period is reported).

human mGlu2 receptor, sequence (Q14416 19-872): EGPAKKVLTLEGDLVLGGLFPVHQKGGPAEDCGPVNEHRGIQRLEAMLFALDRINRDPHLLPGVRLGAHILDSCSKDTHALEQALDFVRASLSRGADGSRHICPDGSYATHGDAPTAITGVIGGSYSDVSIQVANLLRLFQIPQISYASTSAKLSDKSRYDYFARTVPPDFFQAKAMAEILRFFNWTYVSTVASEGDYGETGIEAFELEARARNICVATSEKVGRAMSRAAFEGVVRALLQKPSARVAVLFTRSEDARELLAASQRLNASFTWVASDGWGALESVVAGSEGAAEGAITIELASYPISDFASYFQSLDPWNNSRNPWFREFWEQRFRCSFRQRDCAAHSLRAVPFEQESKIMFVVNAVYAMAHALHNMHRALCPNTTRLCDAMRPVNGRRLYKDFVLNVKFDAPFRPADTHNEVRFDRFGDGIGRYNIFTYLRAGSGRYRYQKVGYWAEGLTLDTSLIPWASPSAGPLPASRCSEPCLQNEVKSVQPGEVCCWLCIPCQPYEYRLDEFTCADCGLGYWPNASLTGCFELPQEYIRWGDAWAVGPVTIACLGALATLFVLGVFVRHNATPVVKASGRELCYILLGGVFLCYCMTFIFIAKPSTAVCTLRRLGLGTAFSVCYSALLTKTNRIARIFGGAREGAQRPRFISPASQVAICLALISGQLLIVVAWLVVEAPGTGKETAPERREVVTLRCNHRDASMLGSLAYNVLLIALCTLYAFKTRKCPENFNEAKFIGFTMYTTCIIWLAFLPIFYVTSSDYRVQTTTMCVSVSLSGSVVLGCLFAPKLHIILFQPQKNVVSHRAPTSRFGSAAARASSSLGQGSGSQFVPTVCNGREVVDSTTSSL

melting point [°C]	IC50 (human mGlu2 receptor) [M]	Emax (human mGlu2 receptor) [%]	GTPγS - hmGluR2 anGT pIC50 (human mGlu2 receptor)	GTPγS - hmGluR2 anGT Emax (human mGlu2 receptor) [%]	Structure (SMILES)	ED50 (Male Wiga Wistar rats) [mg/kg]	ED50 (rats) [mg/kg]	ED50 (Wiga rats) [mg/kg]	ED50 SCOP JNJ-42153605 (Reversal of the effect of JNJ 42153605 on scopolamine-induced hyperlocomotion) (rats) [mg/kg]	ED50 MYD Test 2 (Induction of mydriasis) (Wiga rats) [mg/kg]	Palpebral opening score, Occurrence score > 26 (%) (Male Wiga Wistar rats; control animals, scores cumulated over 60 min after apomorphine 1.0 mg/kg i.v., LY-404039 2.5 mg/kg s.c. 1 h before apomorphine)
199.2	1.07e-08	113	–	–	C[C@H]1CN(c2ccc(C(F)(F)F)c(F)c2)C(=O)c2c(C(=O)Nc3ccccn3)cnn21 [compound 20]	> 2.5	> 2.5	–	–	–	–
194.8	2.14e-09	111	–	–	COc1cncc(NC(=O)c2cnn3c2C(=O)N(c2ccc(C(F)(F)F)c(C)c2)C[C@@H]3C)c1 [compound 40]	> 0.63	> 0.63	–	–	–	–
140.43	1.07e-09	109	–	–	C[C@H]1CN(c2ccc(C(F)(F)F)c(Cl)c2)C(=O)c2c(C(=O)Nc3cccnc3)cnn21 [compound 47]	–	0.5	32	–	–	–
–	–	–	9.08	107	C[C@H]1CN(c2ccc(Cl)c(Cl)c2)C(=O)c2c(C(=O)Nc3cccnc3)cnn21 [compound 26]	–	–	–	0.32	5	–
223	2.75e-09	113	–	–	C[C@H]1CN(c2ccc(C(F)(F)F)c(Cl)c2)C(=O)c2c(C(=O)Nc3ccccn3)cnn21 [compound 46]	1.99	> 2.5	–	–	–	–
144.6	9.33e-10	112	–	–	Cc1cc(N2C[C@H](C)n3ncc(C(=O)Nc4cncc(F)c4)c3C2=O)ccc1C(F)(F)F [compound 39]	–	0.32	5	–	–	–
229.17	1.17e-09	108	–	–	Cc1cncc(NC(=O)c2cnn3c2C(=O)N(c2ccc(C(F)(F)F)c(Cl)c2)C[C@@H]3C)c1C [compound 126]	> 0.63	> 0.63	–	–	–	–
–	–	–	8.72	108	C[C@H]1CN(c2ccc(C(F)(F)F)c(F)c2)C(=O)c2c(C(=O)Nc3cccnc3)cnn21 [compound 21]	–	–	–	0.32	7.9	–
258.4	3.09e-09	112	–	–	C[C@H]1CN(c2ccc(Cl)c(Cl)c2)C(=O)c2c(C(=O)Nc3ccccn3)cnn21 [compound 25]	> 10	> 2.5	–	–	–	–
225	2.95e-09	119	–	–	C[C@H]1CN(c2ccc(C(F)(F)F)cc2)C(=O)c2c(C(=O)Nc3cnccn3)cnn21 [compound 100]	0.32	0.2	–	–	–	–
196.7	7.41e-09	112	–	–	Cc1cc(NC(=O)c2cnn3c2C(=O)N(c2ccc(Cl)c(OC(F)F)c2)C[C@@H]3C)ccn1 [compound 84, (7S)-5-[4-chloro-3-(difluoromethoxy)phenyl]-7-methyl-N-(2-methyl-4-pyridyl)-4-oxo-6,7-dihydropyrazolo[1,5-a]pyrazine-3-carboxamide]	> 2.5	–	–	–	–	–
180	6.17e-09	106	–	–	C[C@H]1CN(c2ccc(Cl)cc2)C(=O)c2c(C(=O)Nc3cccnc3)cnn21 [compound 41]	0.32	> 0.63	–	–	–	–
–	–	–	–	–	N[C@@]1(C(=O)O)CS(=O)(=O)[C@H]2[C@H](C(=O)O)[C@H]21 [LY-404039, reference compound]	–	–	–	–	–	3.2
196.7	2.24e-09	110	–	–	C[C@H]1CN(c2ccc(C(F)(F)F)cc2)C(=O)c2c(C(=O)Nc3cncc(F)c3)cnn21 [compound 13]	0.32	0.32	–	–	–	–
225	1.1e-09	111	–	–	Cc1ccncc1NC(=O)c1cnn2c1C(=O)N(c1ccc(Cl)c(Cl)c1)C[C@@H]2C [compound 30]	–	0.51	3.1	–	–	–
194.5	2.24e-09	107	–	–	Cc1c(F)cncc1NC(=O)c1cnn2c1C(=O)N(c1ccc(C(F)(F)F)cc1)C[C@@H]2C [compound 124, (7S)—N-(5-Fluoro-4-methyl-3-pyridyl)-7-methyl-4-oxo-5-[4-(trifluoromethyl)phenyl]-6,7-dihydropyrazolo[1,5-a]pyrazine-3-carboxamide]	–	0.2	> 40	–	–	–
–	1.48e-09	107	–	–	Cc1cc(NC(=O)c2cnn3c2C(=O)N(c2ccc(C(F)(F)F)c(Cl)c2)C[C@@H]3C)cc(C)n1 [compound 107]	> 0.63	> 0.63	–	–	–	–
–	–	–	8.91	109	Cc1cc(NC(=O)c2cnn3c2C(=O)N(c2ccc(C(F)(F)F)c(Cl)c2)C[C@@H]3C)ccn1 [compound 109]	–	–	–	0.32	32	–
197.8	4.79e-09	114	–	–	COc1cncc(NC(=O)c2cnn3c2C(=O)N(c2ccc(C(F)(F)F)cc2)C[C@@H]3C)c1 [compound 144]	1.99	1.01	–	–	–	–
227.3	3.98e-09	114	–	–	Cc1cc(N2C[C@H](C)n3ncc(C(=O)Nc4ccccn4)c3C2=O)ccc1C(F)(F)F [compound 35]	> 10	> 2.5	–	–	–	–
–	–	–	9.09	108	C[C@H]1CN(c2ccc(Cl)c(Cl)c2)C(=O)c2c(C(=O)Nc3cncc(F)c3)cnn21 [compound 27]	–	–	–	0.32	>10	–
244.9	8.51e-09	106	–	–	Cc1cc(NC(=O)c2cnn3c2C(=O)N(c2ccc(C(F)(F)F)cn2)C[C@@H]3C)ccn1 [compound 88]	> 2.5	–	–	–	–	–
202.8	7.24e-10	108	–	–	Cc1cncc(NC(=O)c2cnn3c2C(=O)N(c2ccc(C(F)(F)F)c(C)c2)C[C@@H]3C)c1 [compound 37]	> 0.63	> 0.63	–	–	–	–
249.5	2.45e-09	109	–	–	Cc1ccncc1NC(=O)c1cnn2c1C(=O)N(c1ccc(C(F)(F)F)cc1)C[C@@H]2C [compound 14]	0.13	0.13	–	–	–	–
152.64	2.69e-09	115	–	–	C[C@H]1CN(c2ccc(C(F)(F)F)cc2)C(=O)c2c(C(=O)Nc3ccnc(CF)c3)cnn21 [compound 151]	–	> 0.63	–	–	–	–
179.56	3.63e-09	107	–	–	C[C@H]1CN(c2ccc(Cl)c(Cl)c2)C(=O)c2c(C(=O)Nc3ccc(F)cn3)cnn21 [compound 98, (7S)-5-(3,4-Dichlorophenyl)-N-(5-fluoro-2-pyridyl)-7-methyl-4-oxo-6,7-dihydropyrazolo[1,5-a]pyrazine-3-carboxamide]	–	> 0.63	–	–	–	–
